# In US20060079453A1, “Hla binding peptides and their uses” (priority 2002, published 2006):
# Read-outs that look alike come from different tables or passages of the source. No end group written: not given here.
# What was measured:
# Assay in all cases: biochemical
# Format in all cases: binding
# HLA-DR DRB1*0101 (DR1) = HLA-DR DRB1*0101 (DR1) (Homo sapiens, UniProt P01903+P01911, A100R/D57E/F55L/F60I/F76Y/I96L/L162R/M171V/P40L/Q125E/R42F/V115G/Y59C)
# HLA-DR DRB1*0301 (DR3) = HLA-DR DRB1*0301 (DR3) (Homo sapiens, UniProt P01903+P01911, A100K/A102G/A103R/A169T/F55Y/I96L/K41T/L162R/M171V/P40S/Q125H/Q178H/Q39Y/R42S/S66N/T106N/T262R/W38E/Y61H)
# Chain of HLA-DR DRB1*0301 (DR3) (P01903 26-254 limits assumed, other chains not shown): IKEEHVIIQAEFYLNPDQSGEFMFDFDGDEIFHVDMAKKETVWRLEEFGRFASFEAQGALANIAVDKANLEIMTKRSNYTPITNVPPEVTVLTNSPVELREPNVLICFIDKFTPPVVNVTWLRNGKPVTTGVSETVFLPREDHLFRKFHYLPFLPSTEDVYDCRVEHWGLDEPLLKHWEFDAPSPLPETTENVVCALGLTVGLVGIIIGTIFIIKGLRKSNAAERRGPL
# HLA-DR DRB1*0401 (DR4) = HLA-DR DRB1*0401 (DR4) (Homo sapiens, UniProt P01903+P01911, A100K/A169T/F76Y/I96L/K127E/L162R/M171V/N62H/P40V/Q125Y/R42H/S133A/S149N/S66Y/V115G/V209L/W38E)
# HLA-DR DRB1*0405 (DR4) = HLA-DR DRB1*0405 (DR4) (Homo sapiens, UniProt P01903+P01911, A100R/A169T/D86S/F76Y/I96L/K127E/L162R/M171V/N62H/P40V/Q125Y/R42H/S133A/S149N/S66Y/V115G/V209L/W38E)
# HLA-DR DRB1*0701 (DR7) = HLA-DR DRB1*0701 (DR7) (Homo sapiens, UniProt P01903+P01911, A100R/A102G/A103Q/D57E/D86V/E43K/F76Y/K127E/L162R/M171V/P40G/Q125H/Q99D/R33Q/R42Y/R54Q/S133A/S66F/T210M/V115G/Y107V/Y59L/Y89S)
# HLA-DR DRB1*0901 (DR9) = HLA-DR DRB1*0901 (DR9) (Homo sapiens, UniProt P01903+P01911, A100R/A103E/D57H/D86V/F55Y/F60I/F76Y/I96F/K127E/L162R/M171V/P40D/Q125H/Q99R/R33Q/R42F/S133A/S66N/T210M/V115G/W38K/Y107V/Y59G/Y89S)
# HLA-DR DRB1*1302 (DR13) = HLA-DR DRB1*1302 (DR13) (Homo sapiens, UniProt P01903+P01911, A100E/A169T/K41T/L162R/M171V/P40S/Q125H/Q178H/Q39Y/Q99D/R42S/S66N/T262R/V115G/W38E/Y61H); conditions: DRBI *1302
# Chain of HLA-DR DRB1*1302 (DR13) (P01903 26-254 limits assumed, other chains not shown): as above
# HLA-DR DRB1*1501 (DR15) = HLA-DR DRB1*1501 (DR15) (Homo sapiens, UniProt P01903+P01911)
# HLA-DR DRB4*0101 (DR53) = HLA-DR DRB4*0101 (DR53) (Homo sapiens, UniProt P01903+P13762, G164S)
# HLA-DR DRB5*0101 (DR51) = HLA-DR DRB5*0101 (DR51) (Homo sapiens, UniProt P01903+Q30154); conditions: DRB5 *0101
# HLA-DR DRB1*1101 (DR11) = HLA-DR DRB1*1101 (DR11) (Homo sapiens, UniProt P01903+P01911, A100R/A169T/A87E/I96F/K41T/L162R/M171V/P40S/Q125H/Q178H/Q39Y/Q99D/R42S/S66Y/T262R/V115G/W38E); conditions: DRB1 *1101
# Chain of HLA-DR DRB1*1101 (DR11) (P01903 26-254 limits assumed, other chains not shown): as above
Molecule,IC50 (HLA-DR DRB1*0101 (DR1); read-out: DRB1 *0101) [nM],IC50 (HLA-DR DRB1*0301 (DR3); read-out: DRB1 *0301) [nM],IC50 (HLA-DR DRB1*0401 (DR4); read-out: DRB1 *0401) [nM],IC50 (HLA-DR DRB1*0405 (DR4); read-out: DRB1 *0405) [nM],IC50 (HLA-DR DRB1*0701 (DR7); read-out: DRB1 *0701) [nM],IC50 (HLA-DR DRB1*0901 (DR9); read-out: DRB1 *0901) [nM],IC50 (HLA-DR DRB1*0101 (DR1); DRB1 *0101) [nM],IC50 (HLA-DR DRB1*0301 (DR3)) [nM],IC50 (HLA-DR DRB1*0401 (DR4); DRB1 *0401) [nM],IC50 (HLA-DR DRB1*0405 (DR4); DRB1 *0405) [nM],IC50 (HLA-DR DRB1*0901 (DR9); DRB1 *0901) [nM],IC50 (HLA-DR DRB1*1302 (DR13)) [nM],IC50 (HLA-DR DRB1*1501 (DR15); DRBI *1501) [nM],IC50 (HLA-DR DRB4*0101 (DR53); DRB4 *0101) [nM],IC50 (HLA-DR DRB5*0101 (DR51)) [nM],IC50 (HLA-DR DRB1*0701 (DR7); DRB1 *0701) [nM],IC50 (HLA-DR DRB1*1101 (DR11)) [nM],IC50 (HLA-DR DRB1*1501 (DR15)) [nM],IC50 (HLA-DR DRB4*0101 (DR53)) [nM]
RLFDNAMLRAHRL,2.3,27,6290,4250,3300,> 59500,,,,,,,,,,,,,
MLDLQPETTDLYCYE,,720,1910,4250,> 72300,> 32200,,,,,,,,,,,,,
FVVYRDSIPHAACHK,,,,,,,587,200,10,704,2120,1850,349,18100,2340,,,,
RETLQEIVLHLEPQN,,,,,,,1590,,2940,829,19100,11400,16200,95,> 55100,25900,7900,,
CSNLSTCVLQKLSQE,,> 205000,,5340,31800,7220,,,,,,,,,,,,,
GEALSTLVLNRLKVG,,,,,,,719,11800,3050,14800,20200,29,,1020,46,3190,79,,
LQQLFLSTLSFVCPW,,,,,,,121,2040,,94,152,,,22,36900,272,11700,,
VYDFVFADLRIVYRD,98,2.2,475,717,,198,,,,,,,,,,,,,
DFAFTDLTIVYRDDT,,,,,,,,23,80,40,1440,5010,3650,21600,675,,,,
VCLLFYSKVRKYRYY,,,,,,,960,276,,73,1800,,61,2340,,258,326,,
RVIKNSIRLTL,,,,,,,3650,584,9250,80700,2570,32,4320,,8830,2240,1740,,
CC(C)C[C@H](NC(=O)[C@H](C)NC(=O)[C@H](Cc1ccccc1)NC(=O)[C@@H](N)[C@@H](C)O)C(=O)N[C@@H](Cc1c[nH]c2ccccc12)C(=O)N[C@@H](CCCNC(=N)N)C(=O)N[C@H](C(=O)N[C@@H](CO)C(=O)N[C@@H](C)C(=O)N[C@@H](CCC(=O)O)C(=O)N[C@@H](CCC(=O)O)C(=O)N[C@@H](Cc1ccc(O)cc1)C(=O)O)C(C)C,,,,,,,> 5280,88300,342,72,517,> 2570,> 12700,> 6610,25500,927,342,,
CC[C@H](C)[C@H](NC(=O)[C@H](CCC(=O)O)NC(=O)[C@H](CC(C)C)NC(=O)[C@H](C)NC(=O)[C@H](CO)NC(=O)[C@H](CO)NC(=O)[C@H](CC(C)C)NC(=O)[C@H](CCC(=O)O)NC(=O)[C@H](Cc1c[nH]cn1)NC(=O)[C@H](CC(C)C)NC(=O)[C@H](CCCCN)NC(=O)[C@H](CCCNC(=N)N)NC(=O)[C@@H]1CCCN1)C(=O)N1CCC[C@H]1C(=O)N[C@@H](Cc1ccc(O)cc1)C(=O)O,,,,,,,,16100,5280,80,213,51,1120,,> 10700,,,,
QDYVLDLQPEATDLH,,,,,,,13400,,253,5590,> 39900,> 11500,> 62800,1850,> 22900,> 18600,> 11900,,
CC[C@H](C)[C@H](NC(=O)[C@@H](NC(=O)[C@H](CC(C)C)NC(=O)[C@H](CC(=O)O)NC(=O)[C@@H](NC(=O)[C@H](Cc1ccccc1)NC(=O)[C@H](C)NC(=O)[C@H](Cc1ccccc1)NC(=O)[C@H](CC(=O)O)NC(=O)[C@H](CC(C)C)NC(=O)[C@@H](N)C(C)C)[C@@H](C)O)[C@@H](C)O)C(=O)N[C@H](C(=O)N[C@@H](Cc1ccc(O)cc1)C(=O)N[C@@H](CCCNC(=N)N)C(=O)N[C@@H](CC(=O)O)C(=O)O)C(C)C,,,,,,,354,30,,721,252,3100,645,11300,14800,230,7470,,
CC[C@H](C)[C@H](NC(=O)[C@H](Cc1ccc(O)cc1)NC(=O)[C@@H]1CCCN1C(=O)[C@H](CC(=O)O)NC(=O)[C@H](CCC(=O)O)NC(=O)[C@H](CC(C)C)NC(=O)[C@@H](NC(=O)[C@H](C)NC(=O)[C@@H](N)CCC(=O)O)C(C)C)C(=O)N[C@@H](CC(C)C)C(=O)N[C@@H](CC(C)C)C(=O)N[C@H](C(=O)N[C@@H](CO)C(=O)N[C@@H](CO)C(=O)N[C@@H](CCCCN)C(=O)O)C(C)C,,,,,,,34,479,233,681,15000,> 10300,,,,,4380,> 50800,> 26400
LTIVYRDDTPHGVCT,> 15400,187,23,> 8590,> 72300,> 25300,,,,,,,,,,,,,
DLRVVQQLLMGALTV,,,,,,,8.4,26000,,84,1840,57,,9.5,,508,,,
LSFFLKEKGGLDGL,,> 341000,,983,20000,3500,,,,,,,,,,,,,
LRVVQQLLMGALTVT,,,,,,,5.7,21700,,85,204,8.9,56,7.7,,82,,,
DFAFADLTVVYREGN,,,,,,,3290,,141,60,322,9630,4920,18000,39800,1730,> 18000,,
CC[C@H](C)[C@H](N)C(=O)N[C@@H](CCCNC(=N)N)C(=O)N[C@H](C(=O)N[C@@H](CC(C)C)C(=O)N[C@@H](CCC(=O)O)C(=O)N[C@@H](CC(=O)O)C(=O)N[C@@H](CC(C)C)C(=O)N[C@@H](CC(C)C)C(=O)N[C@@H](CCSC)C(=O)NCC(=O)N[C@H](C(=O)N[C@@H](CC(C)C)C(=O)NCC(=O)N[C@H](C(=O)N[C@H](C(=O)O)C(C)C)[C@@H](C)CC)[C@@H](C)O)[C@@H](C)O,,,,,,,16,5210,95,61,1720,789,,23,,895,,,
WYRYSVYGTTLEKLT,,,,,,,163,26600,249,8.5,284,805,421,1040,62,107,,,
REVYKFLFTDLRIVY,,,,,,,8.7,,,52,204,80,258,203,155,54,2260,,
